Source: ChEMBL document CHEMBL1201862, “PubChem BioAssay data set” (2004)
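Following 48 hours of exposure in 96-well plates, responses at five concentrations were used to interpolate endpoints linearly. GI50 = concentration required for 50% inhibition of growth.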 Activity calls are given as the source filed them. Rule as the data show it: active = GI50 up to about 1.1 µM and inactive = higher. Where a SMILES comes first, the peptide text is derived from it. [ ]: non-standard residue; d: D form. The star is where a group is joined. Bn2Val = CC(C)[C@@H](C(=O)*)N(Cc1ccccc1)Cc1ccccc1; NH(4-F-benzyl) = Fc1ccc(CN*)cc1; NMeV = CN[C@H](C(=O)O)C(C)C; dNMeA = CN[C@H](C)C(=O)O

Tests used:
Assay in all cases: NCI-60 cell line screen, 48 h
OVCAR-4 = tested on: OVCAR-4
SK-MEL-2 = tested on: SK-MEL-2
NCI-H23 = tested on: NCI-H23
MDA-N = tested on: MDA-N
LOX IMVI = tested on: LOX IMVI
NCI-H522 = tested on: NCI-H522
CCRF-CEM = tested on: CCRF-CEM
A498 = tested on: A498
T47D = tested on: T47D
OVCAR-5 = tested on: OVCAR-5
SF-268 = tested on: SF-268
HL-60 = tested on: HL-60
CAKI-1 = tested on: CAKI-1
SK-OV-3 = tested on: SK-OV-3
SK-MEL-5 = tested on: SK-MEL-5
SNB-75 = tested on: SNB-75
A549 = tested on: A549
SF-539 = tested on: SF-539
UO-31 = tested on: UO-31
Malme-3M = tested on: Malme-3M

Measured: GI50

CC1OC(OC2C(CO)OC(O[C@H]3CC[C@@]4(C)C(=CC[C@H]5[C@@H]6C[C@@H]7O[C@](O)(CC[C@H](C)COC8OC(CO)C(O)C(O)C8O)[C@@H](C)[C@@H]7[C@@]6(C)CC[C@@H]54)C3)C(OC3OC(C)C(O)C(O)C3O)C2O)C(O)C(O)C1O (stereo not given in full)
inactive: OVCAR-4 7.96 µM | SK-MEL-2 6.21 µM | NCI-H23 4.29 µM | MDA-N 3.4 µM | LOX IMVI 2.17 µM | NCI-H522 2.88 µM | CCRF-CEM 1.42 µM | A498 26.7 µM | T47D 3.51 µM | OVCAR-5 10.8 µM | SF-268 3.36 µM | HL-60 4.66 µM | CAKI-1 1.77 µM | SK-OV-3 2.91 µM | SK-MEL-5 7.1 µM | SNB-75 2.16 µM | A549 2.35 µM | SF-539 2.82 µM | UO-31 3.63 µM | Malme-3M 5.6 µM

O=c1[nH][nH]c(=O)n1Cc1cccc(Cn2c(=O)[nH][nH]c2=O)c1
inactive: OVCAR-4 > 100 µM | SK-MEL-2 > 100 µM | NCI-H23 > 100 µM | MDA-N > 100 µM | LOX IMVI > 100 µM | NCI-H522 > 100 µM | CCRF-CEM > 100 µM | A498 > 100 µM | T47D > 100 µM | OVCAR-5 > 100 µM | SF-268 > 100 µM | HL-60 > 100 µM | CAKI-1 > 100 µM | SK-OV-3 > 100 µM | SK-MEL-5 > 100 µM | SNB-75 > 100 µM | A549 > 100 µM | SF-539 > 100 µM | UO-31 > 100 µM | Malme-3M > 100 µM

O=C1c2c(Cl)c(Cl)c(Cl)c(Cl)c2C(=O)N1CCN(c1c(Cl)ssc1=O)c1c(Cl)ssc1=O
inactive: OVCAR-4 18.2 µM | SK-MEL-2 24.2 µM | NCI-H23 40.9 µM | MDA-N 18.5 µM | LOX IMVI 21.9 µM | NCI-H522 23.2 µM | CCRF-CEM 4.36 µM | A498 > 100 µM | T47D 17.1 µM | OVCAR-5 50.1 µM | SF-268 71.9 µM | HL-60 30.2 µM | CAKI-1 17.5 µM | SK-OV-3 > 100 µM | SK-MEL-5 > 100 µM | SNB-75 31.6 µM | A549 > 100 µM | SF-539 19.1 µM | UO-31 18.2 µM | Malme-3M 25.2 µM

c1ccc(/N=c2/sc3ccccc3s/c2=N/c2ccccc2)cc1
inactive: OVCAR-4 2.02 µM | SK-MEL-2 1.86 µM | NCI-H23 1.96 µM | MDA-N 1.61 µM | LOX IMVI 1.7 µM | NCI-H522 1.56 µM | CCRF-CEM > 100 µM | A498 2.33 µM | T47D 1.65 µM | OVCAR-5 2.11 µM | SF-268 3.12 µM | HL-60 6.41 µM | CAKI-1 1.87 µM | SK-OV-3 2.81 µM | SK-MEL-5 1.99 µM | SNB-75 2.82 µM | A549 2.54 µM | SF-539 1.88 µM | UO-31 1.58 µM | Malme-3M 1.86 µM

CC(C)[C@H](NC(=O)[C@H](C(C)C)N(Cc1ccccc1)Cc1ccccc1)C(=O)N(C)[C@H](C(=O)N1CCC[C@H]1C(=O)N(C)[C@H](C)C(=O)NCc1ccc(F)cc1)C(C)C (Bn2Val-V[NMeV]P[dNMeA]-{NH(4-F-benzyl)})
inactive: OVCAR-4 4.28 µM | SK-MEL-2 2.12 µM | NCI-H23 3.82 µM | MDA-N 4.29 µM | LOX IMVI 1.85 µM | NCI-H522 3.01 µM | CCRF-CEM 3.65 µM | A498 2.42 µM | T47D 3.82 µM | OVCAR-5 3.59 µM | SF-268 3.19 µM | HL-60 2.54 µM | CAKI-1 5.13 µM | SK-OV-3 5.35 µM | SK-MEL-5 2.22 µM | SNB-75 4.07 µM | A549 3.3 µM | SF-539 2.71 µM | UO-31 2.19 µM | Malme-3M 3.63 µM

CC(=O)NCC1(c2ccccc2)CCN(CC2COc3ccccc3O2)CC1 (stereo not given) [ACOXATRINE]
inactive: OVCAR-4 > 100 µM | SK-MEL-2 > 100 µM | NCI-H23 > 100 µM | MDA-N > 100 µM | LOX IMVI 62.2 µM | NCI-H522 > 100 µM | CCRF-CEM > 100 µM | A498 > 100 µM | T47D > 100 µM | OVCAR-5 > 100 µM | SF-268 > 100 µM | HL-60 > 100 µM | CAKI-1 > 100 µM | SK-OV-3 > 100 µM | SK-MEL-5 > 100 µM | SNB-75 > 100 µM | A549 > 100 µM | SF-539 > 100 µM | UO-31 > 100 µM | Malme-3M > 100 µM

CCOC(=O)C(C)(C)Oc1ccc(Cl)cc1 [CLOFIBRATE]
inactive: OVCAR-4 322 µM | SK-MEL-2 173 µM | NCI-H23 303 µM | MDA-N 566 µM | LOX IMVI 156 µM | NCI-H522 435 µM | CCRF-CEM 596 µM | A498 297 µM | T47D 202 µM | OVCAR-5 446 µM | SF-268 650 µM | HL-60 > 1000 µM | CAKI-1 > 1000 µM | SK-OV-3 986 µM | SK-MEL-5 147 µM | SNB-75 229 µM | A549 432 µM | SF-539 366 µM | UO-31 726 µM | Malme-3M 215 µM
